Each block holds one compound with its values, some of them ahead of it.
Experiments:
Melanocortin receptor 4 [1] = biological target: T1, Melanocortin receptor 4 (Homo sapiens, UniProt P32245); test: Effective concentration (binding affinity) exhibited against human melanocortin receptor 4 by radio labeled ligand assay (Displacement of [125I]NDP-alpha-MSH from the human receptors expressed in CHO cells); assay type: functional, cell-based
Melanocortin receptor 3 [2] = biological target: T2, Melanocortin receptor 3 (Homo sapiens, UniProt P41968); test: Percentage of cAMP accumulation at 10 uM compound relative to alpha-MSH for melanocortin receptor 3; assay type: functional
T2 sequence (P41968 whole entry): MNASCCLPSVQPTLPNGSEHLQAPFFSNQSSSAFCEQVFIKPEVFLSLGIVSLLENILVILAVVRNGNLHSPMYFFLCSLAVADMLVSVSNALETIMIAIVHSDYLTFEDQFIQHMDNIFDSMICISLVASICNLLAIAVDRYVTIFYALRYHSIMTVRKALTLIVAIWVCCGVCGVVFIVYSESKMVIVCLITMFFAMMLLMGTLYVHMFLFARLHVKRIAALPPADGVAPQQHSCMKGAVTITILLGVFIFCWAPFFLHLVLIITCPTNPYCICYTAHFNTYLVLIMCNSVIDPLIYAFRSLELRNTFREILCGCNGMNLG

Melanocortin receptor 3 [3] = biological target: T2, Melanocortin receptor 3; test: Inhibition concentration (binding affinity) against human melanocortin receptor 3 by displacement of [125I]NDP-alpha-MSH from the human receptors expressed in CHO cells; assay type: cell-based
Melanocortin receptor 4 [4] = biological target: T1, Melanocortin receptor 4; test: Inhibition concentration (binding affinity) against human melanocortin receptor 4 by displacement of [125I]NDP-alpha-MSH from the human receptors expressed in CHO cells; assay type: cell-based
Melanocortin receptor 5 [5] = biological target: T3, Melanocortin receptor 5 (Homo sapiens, UniProt P33032); test: Inhibition concentration (binding affinity) against human melanocortin receptor 5 by displacement of [125I]NDP-alpha-MSH from the human receptors expressed in CHO cells; assay type: cell-based
T3 sequence (P33032 whole entry): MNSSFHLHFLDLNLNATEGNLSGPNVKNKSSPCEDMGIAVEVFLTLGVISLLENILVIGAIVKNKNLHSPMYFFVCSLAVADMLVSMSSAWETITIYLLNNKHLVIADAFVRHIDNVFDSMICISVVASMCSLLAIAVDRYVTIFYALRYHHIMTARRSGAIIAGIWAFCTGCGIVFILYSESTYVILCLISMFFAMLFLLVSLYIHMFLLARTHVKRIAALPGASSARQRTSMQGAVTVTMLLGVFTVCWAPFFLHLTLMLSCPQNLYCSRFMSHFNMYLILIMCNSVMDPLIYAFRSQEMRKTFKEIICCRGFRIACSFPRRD

Melanocortin receptor 5 [6] = biological target: T3, Melanocortin receptor 5; test: Inhibition concentration (binding affinity) exhibited against human melanocortin receptor 5 by radio labeled ligand assay (Displacement of [125I]NDP-alpha-MSH from the human receptors expressed in CHO cells); assay type: functional, cell-based
Melanocortin receptor 5 [7] = biological target: T3, Melanocortin receptor 5; conditions: 10 uM
Melanocortin receptor 4 [8] = biological target: T1, Melanocortin receptor 4; test: Inhibition concentration (binding affinity) exhibited against human melanocortin receptor 4 by radio labeled ligand assay (Displacement of [125I]NDP-alpha-MSH from the human receptors expressed in CHO cells); assay type: functional, cell-based
[9] = Cmax value in rhesus as a solution in water at 0.5 mg/kg, iv and 2 mg/kg po.; assay type: ADME, organism-based; conditions: cercopithecidae, in vivo
Melanocortin receptor 3 [10] = biological target: T2, Melanocortin receptor 3; test: Percentage of cAMP accumulation at 10 uM compound relative to alpha-MSH in hMC3R; assay type: functional
Melanocortin receptor 4 [11] = biological target: T4, Melanocortin receptor 4 (Rattus norvegicus, UniProt P70596); test: Inhibition concentration (binding affinity) against rat melanocortin receptor 4 by displacement of [125I]NDP-alpha-MSH from the human receptors expressed in CHO cells; assay type: cell-based
T4 sequence (P70596 whole entry): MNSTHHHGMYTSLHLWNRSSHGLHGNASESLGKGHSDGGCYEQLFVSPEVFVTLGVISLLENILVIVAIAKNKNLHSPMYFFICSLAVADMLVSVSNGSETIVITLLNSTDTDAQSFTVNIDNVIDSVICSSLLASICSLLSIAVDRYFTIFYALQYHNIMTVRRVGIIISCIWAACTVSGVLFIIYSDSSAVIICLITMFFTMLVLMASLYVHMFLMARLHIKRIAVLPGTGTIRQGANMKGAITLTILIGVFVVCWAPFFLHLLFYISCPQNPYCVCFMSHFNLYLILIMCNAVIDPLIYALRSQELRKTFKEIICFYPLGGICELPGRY

[12] = biological target: Melanocyte-stimulating hormone receptor (Homo sapiens, UniProt Q01726); test: Inhibition concentration (binding affinity) against human melanocortin receptor 1 by displacement of [125I]NDP-alpha-MSH from the human receptors expressed in CHO cells; assay type: cell-based
Melanocyte-stimulating hormone receptor, sequence (Q01726 whole entry): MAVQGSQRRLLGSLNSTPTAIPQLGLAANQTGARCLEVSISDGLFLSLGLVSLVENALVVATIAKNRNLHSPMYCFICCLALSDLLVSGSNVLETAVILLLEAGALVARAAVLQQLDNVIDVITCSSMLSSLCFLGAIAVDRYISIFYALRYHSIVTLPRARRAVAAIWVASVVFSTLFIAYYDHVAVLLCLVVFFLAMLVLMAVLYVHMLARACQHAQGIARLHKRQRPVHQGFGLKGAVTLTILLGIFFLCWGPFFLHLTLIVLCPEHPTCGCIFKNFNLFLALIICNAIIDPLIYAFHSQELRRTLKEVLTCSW

[13] = biological target: T5, Adrenocorticotropic hormone receptor (Homo sapiens, UniProt Q01718); test: Inhibition concentration (binding affinity) against human melanocortin receptor 2 by displacement of [125I]NDP-alpha-MSH from the human receptors expressed in CHO cells; assay type: cell-based
T5 sequence (Q01718 whole entry): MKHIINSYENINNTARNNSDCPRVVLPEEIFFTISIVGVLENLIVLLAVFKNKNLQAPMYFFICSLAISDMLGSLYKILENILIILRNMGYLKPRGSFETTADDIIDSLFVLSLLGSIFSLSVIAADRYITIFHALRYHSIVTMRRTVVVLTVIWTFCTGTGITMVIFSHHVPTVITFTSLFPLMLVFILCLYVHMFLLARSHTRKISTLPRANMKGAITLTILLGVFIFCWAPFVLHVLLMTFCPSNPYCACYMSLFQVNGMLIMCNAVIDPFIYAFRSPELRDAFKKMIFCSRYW

Melanocortin receptor 4 [14] = biological target: T6, Melanocortin receptor 4 (Mus musculus, UniProt P56450); test: Inhibition concentration (binding affinity) against mouse melanocortin receptor 4 by displacement of [125I]NDP-alpha-MSH from the human receptors expressed in CHO cells; assay type: cell-based
T6 sequence (P56450 whole entry): as the sequence (P70596 whole entry) above, with H21Y, S36P, T199S, A239T, P329S, G330S counted along it

Melanocortin receptor 4 [15] = biological target: T4, Melanocortin receptor 4; test: Concentration of compound at 50% maximum cAMP accumulation in rat melanocortin receptor (rMC4R); assay type: functional
Melanocortin receptor 4 [16] = biological target: T1, Melanocortin receptor 4; test: Concentration of compound at 50% maximum cAMP accumulation in human melanocortin receptor (hMC4R); assay type: functional
Melanocortin receptor 5 [17] = biological target: T3, Melanocortin receptor 5; test: Concentration of compound at 50% maximum cAMP accumulation in human melanocortin receptor (hMC5R); assay type: functional
Melanocortin receptor 4 [18] = biological target: T6, Melanocortin receptor 4; test: Concentration of compound at 50% maximum cAMP accumulation in mouse melanocortin receptor (mMC4R); assay type: functional
[19] = Cmax value in beagles as a solution in water at 0.5 mg/kg, iv and 2.0 mg/kg, po.; assay type: ADME, organism-based, Canis lupus familiaris; conditions: beagle, dog, in vivo
[20] = Cmax value in Sprague Dawley rats as a solution in water at 1 mg/kg, iv and 20 mg/kg, po.; assay type: ADME, organism-based; conditions: rat, in vivo
[21] = Half life in rhesus as a solution in water at 0.5 mg/kg, iv and 2 mg/kg po.; assay type: ADME, organism-based; conditions: cercopithecidae, in vivo
[22] = Clearance in rhesus as a solution in water at 0.5 mg/kg, iv and 2 mg/kg po.; assay type: ADME, organism-based; conditions: cercopithecidae, in vivo
[23] = Clearance in beagles as a solution in water at 0.5 mg/kg, iv and 2.0 mg/kg, po.; assay type: ADME, organism-based, Canis lupus familiaris; conditions: beagle, dog, in vivo
[24] = […] in beagles as a solution in water at 0.5 mg/kg, iv and 2.0 mg/kg, po.; assay type: organism-based, Canis lupus familiaris; conditions: beagle, dog, in vivo
[25] = […] in Sprague Dawley rats as a solution in water at 1 mg/kg, iv and 20 mg/kg, po.; assay type: organism-based; conditions: rat, in vivo
[26] = Clearance in Sprague Dawley rats as a solution in water at 1 mg/kg, iv and 20 mg/kg, po.; assay type: ADME, organism-based; conditions: rat, in vivo
[27] = Volume of distribution in rhesus as a solution in water at 0.5 mg/kg, iv and 2 mg/kg po.; assay type: ADME, organism-based; conditions: cercopithecidae, in vivo, read-out: Vdss
[28] = Volume of distribution in beagles as a solution in water at 0.5 mg/kg, iv and 2.0 mg/kg, po.; assay type: ADME, organism-based, Canis lupus familiaris; conditions: beagle, dog, in vivo, read-out: Vdss
[29] = Volume of distribution in Sprague Dawley rats as a solution in water at 1 mg/kg, iv and 20 mg/kg, po.; assay type: ADME, organism-based; conditions: rat, in vivo, read-out: Vdss
[30] = […] in rhesus as a solution in water at 0.5 mg/kg, iv and 2 mg/kg po.; assay type: organism-based; conditions: cercopithecidae, in vivo
[31] = Bioavailability in rhesus as a solution in water at 0.5 mg/kg, iv and 2 mg/kg po.; assay type: ADME, organism-based, Macaca mulatta; conditions: rhesus monkey, in vivo
[32] = Half life in Sprague Dawley rats as a solution in water at 1 mg/kg, iv and 20 mg/kg, po.; assay type: ADME, organism-based; conditions: rat, in vivo
[33] = Bioavailability in beagles as a solution in water at 0.5 mg/kg, iv and 2.0 mg/kg, po.; assay type: ADME, organism-based, Canis lupus familiaris; conditions: beagle, dog, in vivo
[34] = Bioavailability in Sprague Dawley rats as a solution in water at 1 mg/kg, iv and 20 mg/kg, po.; assay type: ADME, organism-based; conditions: rat, in vivo
[35] = Half life in beagles as a solution in water at 0.5 mg/kg, iv and 2.0 mg/kg, po.; assay type: ADME, organism-based, Canis lupus familiaris; conditions: beagle, dog, in vivo
[36] = biological target: T5, Adrenocorticotropic hormone receptor; conditions: 10 uM

T1 sequence (P32245 whole entry): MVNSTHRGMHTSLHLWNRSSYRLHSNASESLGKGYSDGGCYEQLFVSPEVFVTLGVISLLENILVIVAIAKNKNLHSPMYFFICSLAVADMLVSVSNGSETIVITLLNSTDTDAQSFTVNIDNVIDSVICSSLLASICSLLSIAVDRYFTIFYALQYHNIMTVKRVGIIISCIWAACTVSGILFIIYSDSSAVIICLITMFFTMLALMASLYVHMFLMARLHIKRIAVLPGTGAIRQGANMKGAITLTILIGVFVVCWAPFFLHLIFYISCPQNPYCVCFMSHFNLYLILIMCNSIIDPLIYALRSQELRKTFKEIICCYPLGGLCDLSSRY

EC50 (Melanocortin receptor 4 [1]): 165 nM
Max (Melanocortin receptor 3 [2]): 5%
IC50 (Melanocortin receptor 3 [3]): 1350 nM
IC50 (Melanocortin receptor 4 [4]): 28 nM
IC50 (Melanocortin receptor 5 [5]): 6460 nM
EC50 (Melanocortin receptor 5 [6]): 850 nM
Max (Melanocortin receptor 5 [7]): 14%
Compound: CN1C[C@H]2CC[C@@H]1[C@@H](C(=O)N[C@H](Cc1ccc(F)cc1)C(=O)N1CCC(C(=O)NC(C)(C)C)(C3CCCCC3)CC1)C2

Max (Melanocortin receptor 3 [2]): 4%
IC50 (Melanocortin receptor 3 [3]): 410 nM
IC50 (Melanocortin receptor 4 [4]): 6 nM
IC50 (Melanocortin receptor 5 [5]): 1080 nM
EC50 (Melanocortin receptor 4 [8]): 34 nM
Max (Melanocortin receptor 5 [7]): 5%
Compound: CN1C[C@@H]2CC[C@H]1[C@@H](C(=O)N[C@H](Cc1ccc(F)cc1)C(=O)N1CCC(C(=O)NC(C)(C)C)(C3CCCCC3)CC1)C2

Compound: CC(C)(C)NC(=O)C1(C2CCCCC2)CCN(C(=O)[C@@H](Cc2ccc(F)cc2)NC(=O)[C@H]2C[C@@H]3CC[C@@H]2NC3)CC1
pMax (Melanocortin receptor 3 [2]): 3%
IC50 (Melanocortin receptor 3 [3]): 620 nM
IC50 (Melanocortin receptor 4 [4]): 14 nM
IC50 (Melanocortin receptor 5 [5]): 1020 nM
EC50 (Melanocortin receptor 4 [8]): 52 nM
Max (Melanocortin receptor 5 [7]): 3%

Cmax [9]: 850 nM
Activation (Melanocortin receptor 3 [10]): 8%
Max (Melanocortin receptor 3 [2]): 8%
IC50 (Melanocortin receptor 4 [11]): 3000 nM
IC50 [12]: 750 nM
IC50 [13]: > 10000 nM
IC50 (Melanocortin receptor 4 [14]): 3000 nM
EC50 (Melanocortin receptor 4 [15]): 5000 nM
EC50 (Melanocortin receptor 4 [16]): 11000 nM
EC50 (Melanocortin receptor 5 [17]): 850 nM
EC50 (Melanocortin receptor 4 [18]): 6000 nM
Cmax [19]: 910 nM
Cmax [20]: 870 nM
half-life [21]: 4.6 h
clearance [22]: 3.4 mL/min/kg
clearance [23]: 6.6 mL/min/kg
clearance [26]: 46.9 mL/min/kg
Vd [27]: 0.8 L/kg
Vd [28]: 2.3 L/kg
Vd [29]: 9.6 L/kg
bioavailability [31]: 16%
half-life [32]: 3.2 h
bioavailability [33]: 50%
bioavailability [34]: 32%
half-life [35]: 4.9 h
Activation [36]: 2%
Max (Melanocortin receptor 5 [7]): 33%
Compound: CN1C[C@H]2CC[C@@H]1[C@H](C(=O)N[C@H](Cc1ccc(F)cc1)C(=O)N1CCC(C(=O)NC(C)(C)C)(C3CCCCC3)CC1)C2
Tmax [24]: 1.1 h
Tmax [25]: 3 h
Tmax [30]: 1.3 h

Compound: CC(C)(C)NC(=O)C1(C2CCCCC2)CCN(C(=O)[C@@H](Cc2ccc(F)cc2)NC(=O)[C@H]2C[C@H]3CC[C@@H]2NC3)CC1
Max (Melanocortin receptor 3 [2]): 10%
IC50 (Melanocortin receptor 3 [3]): 2060 nM
IC50 (Melanocortin receptor 4 [4]): 41 nM
IC50 (Melanocortin receptor 5 [5]): 9870 nM
EC50 (Melanocortin receptor 4 [8]): 238 nM
EC50 (Melanocortin receptor 5 [6]): 1980 nM
Max (Melanocortin receptor 5 [7]): 26%

Compound: CC(C)(C)NC(=O)C1(C2CCCCC2)CCN(C(=O)[C@@H](Cc2ccc(F)cc2)NC(=O)C2CC3CCC2NC3)CC1 (single isomer, unassigned)
Max (Melanocortin receptor 3 [2]): 4%
IC50 (Melanocortin receptor 3 [3]): 620 nM
IC50 (Melanocortin receptor 4 [4]): 16 nM
IC50 (Melanocortin receptor 5 [5]): 940 nM
EC50 (Melanocortin receptor 4 [8]): 20 nM
Max (Melanocortin receptor 5 [7]): 11%

Reference: ChEMBL document CHEMBL1140367, “Discovery and activity of (1R,4S,6R)-N-[(1R)-2-[4-cyclohexyl-4-[[(1,1-dimethylethyl)amino]carbonyl]-1-piperidinyl]-1-[(4-fluorophenyl)methyl]-2-oxoethyl]-2-methyl-2-azabicyclo[2.2.2]octane-6-carboxamide (3, RY764), a potent and selective melanocortin subtype-4 receptor agonist” (Bioorg Med Chem Lett, 2005)
